Assays:
[1] = Growth inhibition of paclitaxel-resistant human NCI/ADR cells after 72 hrs by MTT assay; assay type: functional, cell-based; conditions: NCI/ADR-RES
PANC-1 [2] = test: Cell cycle arrest in human PANC1 cells assessed as accumulation at G1 phase at 100 nM after 24 hrs by flow cytometry; assay type: functional
PANC-1 [3] = test: Cell cycle arrest in human PANC1 cells assessed as accumulation at S phase at 100 nM after 24 hrs by flow cytometry; assay type: functional
PANC-1 [4] = test: Cell cycle arrest in human PANC1 cells assessed as accumulation at G2/M phase at 100 nM after 24 hrs by flow cytometry; assay type: functional
ASPC1 = test: Growth inhibition of human AsPC1 cells after 72 hrs by MTT assay; assay type: functional, cell-based; conditions: ASPC1, 72 h
DLD-1 = test: Growth inhibition of human DLD1 cells after 72 hrs by MTT assay; assay type: functional, cell-based; conditions: DLD-1, 72 h
PANC-1 [5] = test: Growth inhibition of human PANC1 cells after 72 hrs by MTT assay; assay type: functional, cell-based; conditions: PANC-1, 72 h

IC50 (ASPC1)	IC50 (DLD-1)	IC50 (PANC-1 [5])	Structure (SMILES)	IC50 [1]	Activity (PANC-1 [2])	Activity (PANC-1 [3])	Activity (PANC-1 [4])
			C=C/C=C\[C@H](C)[C@@H]1OC(=O)/C=C\C=C\[C@@H](C)[C@@H](O)C[C@H](O)/C=C\[C@H](C)[C@H](O)[C@@H](C)CCCC[C@@H](O)[C@@H]1C	1500 nM			
			C=C/C=C\[C@H](C)[C@@H]1OC(=O)CC/C=C/[C@@H](C)[C@@H](O)C[C@H](O)/C=C\[C@H](C)[C@H](O)[C@@H](C)C[C@@H](C)CC[C@@H](O)[C@@H]1C		9%	17%	75%
			C=C/C=C\[C@H](C)[C@@H]1OC(=O)/C=C\C=C\C[C@@H](O)C[C@H](O)/C=C\[C@H](C)[C@H](O)[C@@H](C)C[C@@H](C)CC[C@@H](O)[C@@H]1C		8%	17%	76%
3100 nM	930 nM	1300 nM	C=C/C=C\[C@H](C)[C@H](O)[C@@H](C)[C@H]1CC[C@H](C)C[C@H](C)[C@@H](O)[C@@H](C)/C=C\[C@@H](O)C[C@H](O)[C@H](C)/C=C/CCC(=O)O1	1600 nM			
4900 nM	1500 nM	3200 nM	C=C/C=C\[C@H](C)[C@H](O)[C@@H](C)[C@H]1CC[C@H](C)C[C@H](C)[C@@H](O)[C@@H](C)/C=C\[C@@H](O)C[C@H](O)[C@H](C)CCCCC(=O)O1	3100 nM			
			C=C/C=C\[C@H](C)[C@@H]1OC(=O)CCCC[C@@H](C)[C@@H](O)C[C@H](O)/C=C\[C@H](C)[C@H](O)[C@@H](C)C[C@@H](C)CC[C@@H](O)[C@@H]1C		6%	9%	84%
			C=C/C=C\[C@H](C)[C@@H]1OC(=O)/C=C\C=C\[C@@H](C)[C@@H](O)C[C@H](O)/C=C\[C@H](C)[C@H](O)[C@@H](C)C[C@@H](C)CC[C@@H](O)[C@@H]1C [DICTYOSTATIN]		4.2%	14%	82%

Source: ChEMBL document CHEMBL1153890, “Total synthesis and biological evaluation of novel C2-C6 region analogues of dictyostatin” (Bioorg Med Chem, 2009)
